The results in this text go back to US12708671B2, “Nanometric pharmaceutical composition in the form of liposomes or nanoemulsion containing specific sequences of interference RNA” (UNIVERSIDADE FEDERAL DO RIO GRANDE DO SUL, priority 2019, dated 2026).

One data set deals with C6 glioma cells. Briefly: C6 glioma cell proliferation by counting in newbauer chamber. Particulars: 100 μM, 48 h, compared to the control. It counts as cell-based, rat. As to the method:
Primary astrocyte cultures were prepared from scratch. The cortex of newborn Wistar rats (1-2 days old) were removed and mechanically dissociated in a balanced saline solution free of Ca^+2 and Mg^+2 (pH 7.4), containing 137 mM NaCl, 5, 36 mM KCl, 0.27 mM Na2HPO4, 1.1 mM KH2PO4, and 6.1 mM glucose. After centrifugation at 1000 g for 5 min, the pellet was resuspended in culture medium (pH 7.6) containing […], 8.39 mM of HEPES buffer (4-(2-hydroxyethyl)-1-acid piperazine ethanesulfonic) (pH 7.6), 23.8 mM NaHCO3, 0.1% fungizone® (Amphotericin B, antifungal), 0.032% antibiotic garamycin and 10% FBS. […]
After treatment with AMPCP, the medium was removed, the cells were washed with PBS buffer solution (phosphate buffered saline, solution containing NaCl and NaHPO4), trypsinized with 200 μL of 0.25% trypsin solution and counted in a newbauer chamber. […] The enzymatic activity of C6 cells was determined in an incubation medium (2 mM MgCl2, 120 mM NaCl, 5 mM KCl, 10 mM glucose, 20 mM HEPES [pH 7.4], and 2 mM AMP [adenosine monophosphate]) at 37° C. for 10 min, where the inorganic phosphate released by the action of CD73 was measured and the protein concentration was evaluated by the methods of malachite green and Coomassie Blue, respectively. Specific activity was expressed as μmol Pi released/min/mg protein. […]

In data set [1] the target is T1, ecto-5′-nucleotidase/CD73 (Rattus norvegicus, UniProt P21588).
T1 construct: endogenous in cells; host or cells: C6 glioma cells (rat)
T1 sequence (P21588 29-551): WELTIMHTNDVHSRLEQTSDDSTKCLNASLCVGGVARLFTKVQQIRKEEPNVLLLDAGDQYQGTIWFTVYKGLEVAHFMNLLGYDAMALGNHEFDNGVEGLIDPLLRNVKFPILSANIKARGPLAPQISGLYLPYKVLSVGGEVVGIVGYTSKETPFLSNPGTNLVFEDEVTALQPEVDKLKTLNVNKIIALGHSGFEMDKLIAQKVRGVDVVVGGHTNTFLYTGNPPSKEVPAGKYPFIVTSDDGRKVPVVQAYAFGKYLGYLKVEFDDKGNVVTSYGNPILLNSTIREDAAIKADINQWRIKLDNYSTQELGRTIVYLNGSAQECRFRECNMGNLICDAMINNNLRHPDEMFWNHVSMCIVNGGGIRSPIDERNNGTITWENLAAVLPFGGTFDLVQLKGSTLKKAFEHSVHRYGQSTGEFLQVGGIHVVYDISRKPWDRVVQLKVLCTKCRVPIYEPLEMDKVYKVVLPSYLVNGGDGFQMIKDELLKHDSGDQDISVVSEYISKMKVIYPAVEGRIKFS
Briefly: ecto-5′-nucleotidase/CD73 enzymatic activity (AMP hydrolysis, malachite green) in C6 glioma. The data set is classed as cell-based, Rattus norvergicus. The settings on record: for reduction of AMP hydrolysis: C6 glioma; for reduction of AMPase activity: C6 glioma cells silenced with NE/siRNA-CD73 complexes. The protocol: After treatment with AMPCP, the medium was removed, the cells were washed with PBS buffer solution (phosphate buffered saline, solution containing NaCl and NaHPO4), trypsinized with 200 μL of 0.25% trypsin solution and counted in a newbauer chamber. Once the cells were treated, enzyme activity, cell viability and immunocytochemistry assays were performed for CD73, in order to determine the reliability of the tests with the NE/siRNA or Lipofectamine®/siRNA complexes. The enzymatic activity of C6 cells was determined in an incubation medium (2 mM MgCl2, 120 mM NaCl, 5 mM KCl, 10 mM glucose, 20 mM HEPES [pH 7.4], and 2 mM AMP [adenosine monophosphate]) at 37° C. for 10 min, where the inorganic phosphate released by the action of CD73 was measured and the protein concentration was evaluated by the methods of malachite green and Coomassie Blue, respectively. Specific activity was expressed as μmol Pi released/min/mg protein.
Thus, it was evaluated how much the selective ecto-5′nucleotidase/CD73 inhibitor, AMPCP, could affect the proliferation of C6 glioma cells. The cells were exposed to increasing concentrations of AMPCP (1, 10 and 100 μM) and after 48 h cell proliferation was determined by counting in a newbauer chamber. In parallel, the activity of the enzyme ecto-5′nucleotidase/CD73 was analyzed by measuring the hydrolysis of AMP to adenosine (ADO) using the malachite green method.
For this purpose, specific siRNA-CD73 sequences were developed (siRNA-CD73-961 and siRNA-CD73-980; Table 1) and their functionality/specificity was assessed by transfecting C6 cells using Lipofectamine® according to the manufacturer's instructions. After 48 h of transfection, CD73 expression and enzymatic activity were evaluated by immunocytochemistry and AMP hydrolysis, respectively.
After the physical-chemical characterization and the optimization of the transfection, the effectiveness of the NE/siRNA-CD73-961 and NE/siRNA-CD73-980 complexes in silencing CD73 in C6 glioma was analyzed through immunocytochemical and AMP hydrolysis experiments.

For data set [2], the system named is U87MG glioma cells. As to the kind of experiment: U87MG cell viability with temozolomide after CD73 silencing. It counts as cell-based. The settings on record: Homo sapiens, U-87 MG, U87MG previously silenced for CD73 with siRNA-CD73-441, read-out: reduction of cell viability. As to the method:
The participation of CD73 in chemoresistance was also investigated (FIG. 13). U87MG glioma cells were treated with temozolomide (100 μM) alone or in combination with siRNA-CD73-441. Temozolomide reduced cell viability by an average of 20% in glioma previously silenced for CD73.

Data set [3] relates to U87MG glioma cells. As to the kind of experiment: U87MG cell proliferation by counting in Neubauer chamber. It counts as cell-based, human. The protocol:
To assess the impact of CD73 silencing on U87MG glioma cell proliferation in culture, cells were silenced using the siRNA-CD73-441 sequence and counted using a Neubauer chamber.

The test system of data set [4] is U87MG glioma cells. Briefly: U87MG migration assay. The data set is classed as cell-based, human.
The subject of data set [5] is CD73. Briefly: CD73 enzymatic activity in U87MG after silencing. It counts as cell-based, human. As to the method: (§1) The siRNA-CD73-441 sequence to silence human CD73 was evaluated for its efficiency.
Data set [6] concerns CD73. Briefly: CD73 protein expression in U87MG after silencing. The data set is classed as cell-based, human. The protocol:
as §1

In the case of `Nc1ncnc2c1ncn2[C@@H]1O[C@H](COP(=O)(O)CP(=O)(O)O)[C@@H](O)[C@H]1O` [AMPCP, adenosine 5′-(α, βmethylene) -diphosphate], in the data set with C6 glioma cells, the “decrease in cell proliferation” value came to 30%. Also, the “reduction of AMP hydrolysis” value in data set [1] (10 μM) was determined as 40%; in data set [1] (100 μM), 50%.
Turning to `Cn1nnc2c(C(N)=O)ncn2c1=O` [Temozolomide, temozolomide], the cytotoxicity at 100 µM in the data set with U87MG glioma cells [2] came to 20%.
On to `Nc1ncnc2c1ncn2[C@@H]1O[C@H](CO)[C@@H](O)[C@H]1O` [adenosine], for which the “proliferation of CD73-silenced U87MG cells” value with U87MG glioma cells [3] (ADO treatment of cells silenced with siRNA-CD73-441) is listed as “restored proliferation”. Further, in the data set with U87MG glioma cells [4] (24 hours of analysis), the “migration of U87MG glioma cells” value is recorded as “induced a sustained migration”. Further, the “migratory potential of CD73-silenced glioblastoma cells” value in the data set on U87MG glioma cells [4] (adenosine treatment of cells silenced with siRNA-CD73-441) is “promoted recovery of the migratory potential”.
In the case of “siRNA-CD73-441: siRNA sequence to silence human CD73, SEQ ID No: 3, Table 1 (GGGGCCACUAGCAUCUCAAAUUUGAGAUGCUAGUGGCCCCUU; listed as RNA, chemistry not given here)”, the “decrease of CD73 enzymatic activity” value with CD73 [5] is ~ 90%. For the same compound, in the data set on CD73 [6], the CD73 protein expression result is given as “efficient in decreasing”. Besides, in the data set on U87MG glioma cells [3] (CD73 silencing), the “inhibition of U87MG cell proliferation” value is reported as ~ 40%. The glioma cell migration result with U87MG glioma cells [4] (U87MG, CD73 silencing) was “impaired glioma cell migration”.
Turning to “siRNA-CD73-961: interference RNA sequence for CD73 (gene ID: 58813, Rattus norvergicus), SEQ ID No: 1, Table 1 (GCCAUCAAAGCAGACAUUAACUAAUGUCUGCUUUGAUGGCUG; listed as RNA, chemistry not given here)”, the “reduction of AMPase activity” value in data set [1] was 70%.
With “siRNA-CD73-980: interference RNA sequence for CD73 (gene ID: 58813, Rattus norvergicus), SEQ ID No: 2, Table 1 (ACCAGUGGAGGAUAAAAUUAGAAUUUUAUCCUCCACUGGUUA; listed as RNA, chemistry not given here)”, the “reduction of AMPase activity” value in data set [1] was found to be 63%.
